Experimental findings from PubChem BioAssay (NCI) are described below.

Common to all, as to test: DTP human tumour cell line panel, 48 h
Assay [1] has as its system SK-MEL-28 melanoma.
The test system of assay [2] is HOP-92 NSCLC.
Assay [3] relates to TK-10 renal.
In assay [4] the test system is MDA-MB-231 breast.
Assay [5] concerns OVCAR-8 ovarian.
Assay [6] deals with HT29 colon.
The subject of assay [7] is OVCAR-3 ovarian.
The subject of assay [8] is SK-OV-3 ovarian.
Assay [9] relates to SW-620 colon.
The subject of assay [10] is HL-60(TB) leukemia.
Assay [11] has as its system HCT-15 colon.
Assay [12] relates to NCI/ADR-RES ovarian.
The subject of assay [13] is RXF 393 renal.
Assay [14] deals with RPMI-8226 leukemia.
Assay [15] relates to HCC-2998 colon.
Assay [16] concerns SF-295 CNS.
The subject of assay [17] is MDA-MB-435.
In assay [18] the test system is T-47D breast.
Assay [19] concerns LOX IMVI melanoma.
For assay [20], the system named is SK-MEL-2 melanoma.

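Assay format: 96-well plates, 48-hour exposure. TGI marks complete inhibition of growth.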 Where a SMILES comes first, the peptide text is derived from it. [ ]: non-standard residue; d: D form. Phe(4-NO2) = N[CH](Cc1ccc([N+](=O)[O-])cc1)C(=O)O

Take `OC[P+](CO)(CO)C12CC3CC(CC(C3)C1)C2`: the TGI in [1], in [2], in [3], in assay [4], in [5] and in [6] was over 100 µM each time. The TGI in assay [7] was over 100 µM; in assay [8] it was over 100 µM; in [9], over 100 µM; in assay [10], 35.4 µM; in assay [11], over 100 µM; in assay [12] it was over 100 µM. The total growth inhibition concentration (TGI) in [13] was over 100 µM; in [14], 59.2 µM; in [15], over 100 µM; in [16] it was over 100 µM; in assay [17], over 100 µM; in assay [18] it was over 100 µM. Moreover, the TGI in assay [19] was over 29.8 µM; in [20], over 100 µM.
`NC(=O)c1ncn(C2OC(CO)C(O)C2O)c1NC=O` (stereo not given): the TGI in assay [1], in assay [2], in [3], in assay [4], in assay [5] and in assay [6] was over 100 µM in each case. The TGI in [7], in assay [8], in [9], in assay [10], in assay [11] and in assay [12] was over 100 µM in each case. The TGI in assay [13], in assay [14], in assay [15], in assay [16], in assay [17] and in assay [18] was over 100 µM throughout. The total growth inhibition concentration (TGI) in assay [19] and in assay [20] was over 100 µM throughout.
As for `C=C1CCCC(C)(C)C1CCC1(C)CCC(C(C)C(=O)OC)OO1` (stereo not given), the total growth inhibition concentration (TGI) is over 25 µM in [1]; 2.44 µM in assay [2]; 7.72 µM in [3]; over 25 µM in assay [4]; over 19.8 µM in assay [5]; over 25 µM in assay [6]. The concentration for total growth inhibition (TGI) in [7] is over 25 µM; in [8], 9.43 µM; in assay [9] it was 24.2 µM; in assay [10], 9.16 µM; in [11], over 25 µM; in [12], over 18.4 µM. The total growth inhibition concentration (TGI) in assay [13] amounted to 11.7 µM; in assay [14], 25 µM; in [15], 11.5 µM; in assay [16], 10.2 µM; in assay [17], 7.59 µM; in assay [18], 11.7 µM. Moreover, the TGI in assay [19] was 0.902 µM; in [20], over 25 µM.
Regarding `O=C(O)c1cc2c(cc1CC(Cc1ccc3c(c1)CCCC3)C(=O)O)CCCC2` (stereo not given), the total growth inhibition concentration (TGI) in [1], in assay [2], in assay [3], in assay [4], in [5] and in assay [6] was over 100 µM throughout. In addition, the TGI in assay [7], in [8], in assay [9], in assay [10], in [11] and in assay [12] was over 100 µM each time. Also, the total growth inhibition concentration (TGI) in [13], in assay [14], in [15], in assay [16], in assay [17] and in [18] was over 100 µM throughout. For the same compound, the concentration for total growth inhibition (TGI) in assay [19] and in [20] was over 100 µM throughout.
Consider `CC(=NNC(=S)Nc1cccc(C)c1)c1cccc(C(C)=NNC(=S)Nc2cccc(C)c2)n1`, for which the TGI is over 100 µM in assay [1]; 63.2 µM in assay [2]; 61.5 µM in assay [3]; 59.9 µM in assay [4]; 76.3 µM in assay [5]; over 100 µM in assay [6]. Also, the concentration for total growth inhibition (TGI) in [7] is 26.8 µM; in assay [8], over 100 µM; in assay [9] it was 70.5 µM; in [10], 70.1 µM; in [11], over 100 µM; in [12], 76.6 µM. In addition, the TGI was 61.1 µM in [13]; over 100 µM in assay [14]; over 100 µM in [15]; 34 µM in assay [16]; over 100 µM in assay [17]; over 100 µM in assay [18]. The TGI in [19] was determined as 85.3 µM; in assay [20], 74 µM.
As for `CC(NC(=O)C(Cc1ccc([N+](=O)[O-])cc1)NC(=O)C(N)CCCCN)C(=O)NC(Cc1ccc([N+](=O)[O-])cc1)C(N)=O` (stereo not given) (H-K[Phe(4-NO2)]A[Phe(4-NO2)]-NH2; configuration not given here), the TGI was over 100 µM in assay [1]; 70.5 µM in assay [2]; over 100 µM in [3]; over 69.9 µM in assay [4]; over 100 µM in assay [5]; over 100 µM in [6]. The concentration for total growth inhibition (TGI) in assay [7] is over 100 µM; in assay [8], over 100 µM; in [9], over 100 µM; in assay [10], over 48.9 µM; in assay [11] it was over 100 µM; in [12] it was over 100 µM. The total growth inhibition concentration (TGI) in assay [13] is over 100 µM; in assay [14] it was over 44.7 µM; in assay [15] it was over 64.8 µM; in assay [16], over 70.9 µM; in assay [17], over 71.5 µM; in assay [18], over 80.8 µM. Moreover, the TGI in assay [19] was over 100 µM; in [20], over 86.6 µM.
Take `CN(C)CCCNC(=O)CCNC(=O)c1cc(NC(=O)c2cc(NC(=O)c3cc(NC(=O)c4nccn4C)cn3C)cn2C)cn1C`: the TGI in assay [1], in [2], in assay [3], in [4], in assay [5] and in assay [6] was over 100 µM throughout. Also, the total growth inhibition concentration (TGI) in assay [7], in [8], in assay [9], in [10], in assay [11] and in assay [12] was over 100 µM each time. In addition, the total growth inhibition concentration (TGI) is over 100 µM in assay [13]; over 100 µM in assay [14]; over 100 µM in assay [15]; over 100 µM in assay [16]; over 100 µM in assay [17]; 97.4 µM in assay [18]. The TGI in assay [19] and in assay [20] was over 100 µM each time.
Take `O=C(SC1=NCCN1)c1cccc2ccccc12`: the TGI in assay [1], in assay [2], in assay [3], in [4], in assay [5] and in [6] was over 100 µM in each case. Moreover, the total growth inhibition concentration (TGI) in [7] is over 100 µM; in [8], over 100 µM; in assay [9], over 100 µM; in assay [10], 67 µM; in assay [11], over 100 µM; in assay [12], over 100 µM. Also, the TGI in assay [13] is over 100 µM; in assay [14], 94.6 µM; in assay [15] it was over 100 µM; in assay [16], over 100 µM; in [17] it was over 100 µM; in [18], over 100 µM. Besides, the TGI in [19] and in [20] was over 100 µM in each case.
Turning to `N#Cc1cc([N+](=O)[O-])ccc1NC(=O)/C(=N\NC(=O)c1ccncc1)C(c1cnc2ccc([N+](=O)[O-])cc2n1)[N+](=O)[O-]` (stereo not given), the TGI was 4.81 µM in [1]; 22.6 µM in assay [2]; 28.3 µM in assay [3]; 5.36 µM in [4]; 9.83 µM in [5]; 41.8 µM in assay [6]. Moreover, the total growth inhibition concentration (TGI) worked out at 4.29 µM in assay [7]; 20 µM in [8]; 5.5 µM in assay [9]; 10.6 µM in assay [10]; 5.22 µM in assay [11]; 37 µM in [12]. Moreover, the concentration for total growth inhibition (TGI) in [13] was found to be 10.8 µM; in [14], 41.7 µM; in assay [15] it was 22.2 µM; in assay [16] it was 4 µM; in assay [17] it was 2.59 µM; in [18], 18.4 µM. The results for the concentration for total growth inhibition (TGI) in [19] and in assay [20] were 2.23 µM and 3.73 µM, respectively.
